The source made the active and inactive calls. The calls are words filed in the database; no cut-off is given here.
Legend:
[1] = system: Plasmodium yoelii; experiment: Antimalarial activity against multidrug resistant Plasmodium yoelii infected in swiss mouse assessed as increase in survival time at 12 mg/kg, IM administered for 4 days and measured on day 28; assay type: functional, organism-based; settings: time 28.0 day
[2] = system: Plasmodium yoelii; experiment: Antimalarial activity against multidrug resistant Plasmodium yoelii infected in swiss mouse assessed as increase in survival time at 6 mg/kg, IM administered for 4 days and measured on day 28; assay type: functional, organism-based; settings: time 28.0 day
[3] = system: Plasmodium yoelii; experiment: Antimalarial activity against multidrug resistant Plasmodium yoelii infected in swiss mouse assessed as increase in survival time at 48 mg/kg, po administered for 4 days and measured on day 28; assay type: functional, organism-based; settings: time 28.0 day
[4] = system: Plasmodium yoelii; experiment: Antimalarial activity against multidrug resistant Plasmodium yoelii infected in swiss mouse assessed as reduction in parasitaemia at 24 mg/kg, po administered for 4 days; assay type: functional; set-up: scale not given: the % may be the effect or the level left; settings: time 4 day
[5] = system: Plasmodium yoelii; experiment: Antimalarial activity against multidrug resistant Plasmodium yoelii infected in swiss mouse assessed as reduction in parasitaemia at 6 mg/kg, IM administered for 4 days; assay type: functional; set-up: scale not given: the % may be the effect or the level left; settings: time 4 day
[6] = system: Plasmodium yoelii; experiment: Antimalarial activity against multidrug resistant Plasmodium yoelii infected in swiss mouse assessed as reduction in parasitaemia at 3 mg/kg, IM administered for 4 days; assay type: functional; set-up: scale not given: the % may be the effect or the level left; settings: time 4 day
[7] = system: Plasmodium yoelii; experiment: Antimalarial activity against multidrug resistant Plasmodium yoelii infected in swiss mouse assessed as increase in survival time at 3 mg/kg, IM administered for 4 days and measured on day 28; assay type: functional, organism-based; settings: time 28.0 day
[8] = system: Plasmodium yoelii; experiment: Antimalarial activity against multidrug resistant Plasmodium yoelii infected in swiss mouse assessed as reduction in parasitaemia at 12 mg/kg, IM administered for 4 days; assay type: functional; set-up: scale not given: the % may be the effect or the level left; settings: time 4 day
[9] = system: Plasmodium yoelii; experiment: Antimalarial activity against multidrug resistant Plasmodium yoelii infected in swiss mouse assessed as reduction in parasitaemia at 12 mg/kg, po administered for 4 days; assay type: functional; set-up: scale not given: the % may be the effect or the level left; settings: time 4 day
[10] = system: Plasmodium yoelii; experiment: Antimalarial activity against multidrug resistant Plasmodium yoelii infected in swiss mouse assessed as increase in survival time at 24 mg/kg, IM administered for 4 days and measured on day 28; assay type: functional, organism-based; settings: time 28.0 day
[11] = system: Plasmodium yoelii; experiment: Antimalarial activity against multidrug resistant Plasmodium yoelii infected in swiss mouse assessed as reduction in parasitaemia at 24 mg/kg, IM administered for 4 days; assay type: functional; set-up: scale not given: the % may be the effect or the level left; settings: time 4 day
[12] = system: Plasmodium yoelii; experiment: Antimalarial activity against multidrug resistant Plasmodium yoelii infected in swiss mouse assessed as increase in survival time at 12 mg/kg, po administered for 4 days and measured on day 28; assay type: functional, organism-based; settings: time 28.0 day
[13] = system: Plasmodium yoelii; experiment: Antimalarial activity against multidrug resistant Plasmodium yoelii infected in swiss mouse assessed as increase in survival time at 24 mg/kg, po administered for 4 days and measured on day 28; assay type: functional, organism-based; settings: time 28.0 day
[14] = system: Plasmodium yoelii; experiment: Antimalarial activity against multidrug resistant Plasmodium yoelii infected in swiss mouse assessed as reduction in parasitaemia at 48 mg/kg, IM administered for 4 days; assay type: functional; set-up: scale not given: the % may be the effect or the level left; settings: time 4 day
[15] = system: Plasmodium yoelii; experiment: Antimalarial activity against multidrug resistant Plasmodium yoelii infected in swiss mouse assessed as increase in survival time at 48 mg/kg, IM administered for 4 days and measured on day 28; assay type: functional, organism-based; settings: time 28.0 day
[16] = system: Plasmodium yoelii; experiment: Antimalarial activity against multidrug resistant Plasmodium yoelii infected in swiss mouse assessed as reduction in parasitaemia at 48 mg/kg, po administered for 4 days; assay type: functional; set-up: scale not given: the % may be the effect or the level left; settings: time 4 day

Structure (SMILES)	Activity [1]	Activity [4] [%]	Activity [5] [%]	Activity [8] [%]	also measured
CCOC1O[C@@H]2O[C@@]3(C)CC[C@H]4[C@H](C)CC[C@@H]([C@H]1C)[C@@]24OO3 (stereo partly specified)	Active	100	100	100	Activity [2]: Active; Activity [3]: Active; Activity [6]: 100%; Activity [7]: inactive
C[C@@H]1CC[C@H]2[C@@H](C)C(=O)N(OCc3ccc([N+](=O)[O-])cc3)[C@@H]3O[C@@]4(C)CC[C@@H]1[C@@]23OO4		100		100	
C[C@@H]1CC[C@H]2[C@@H](C)C(=O)N(CCOCc3ccccc3F)[C@@H]3O[C@@]4(C)CC[C@@H]1[C@@]23OO4		100		100	
C[C@@H]1CC[C@H]2[C@@H](C)C(=O)N(NCc3ccc(Br)cc3)[C@@H]3O[C@@]4(C)CC[C@@H]1[C@@]23OO4		100		100	
C[C@@H]1CC[C@H]2[C@@H](C)C(=O)N(N)[C@@H]3O[C@@]4(C)CC[C@@H]1[C@@]23OO4		100			Activity [9]: 99%; Activity [10]: inactive; Activity [11]: 100%; Activity [12]: inactive
C[C@@H]1CC[C@H]2[C@@H](C)C(=O)N(CCOCc3ccc(-c4ccccc4)cc3)[C@@H]3O[C@@]4(C)CC[C@@H]1[C@@]23OO4		100		100	
C[C@@H]1CC[C@H]2[C@@H](C)C(=O)N(OCCCc3ccccc3)[C@@H]3O[C@@]4(C)CC[C@@H]1[C@@]23OO4	inactive	94		81	Activity [13]: inactive
C[C@@H]1CC[C@H]2[C@@H](C)C(=O)N(CCOCCCc3ccccc3)[C@@H]3O[C@]4(C)CC[C@@H]1[C@@]23OO4	inactive	100	100	91	
C[C@@H]1CC[C@H]2[C@@H](C)C(=O)N(O)[C@@H]3O[C@@]4(C)CC[C@@H]1[C@@]23OO4					Activity [14]: 78%; Activity [15]: inactive
C[C@@H]1CC[C@H]2[C@@H](C)C(=O)N(CCO)[C@@H]3O[C@@]4(C)CC[C@@H]1[C@@]23OO4		10			Activity [3]: inactive; Activity [14]: 100%; Activity [16]: 100%
C[C@@H]1CC[C@H]2[C@@H](C)C(=O)N(CCOCc3ccc([N+](=O)[O-])cc3)[C@@H]3O[C@@]4(C)CC[C@@H]1[C@@]23OO4	Active	90	100	100	Activity [2]: inactive; Activity [13]: inactive
C[C@@H]1CC[C@H]2[C@@H](C)C(=O)N(CCOCc3ccccc3)[C@@H]3O[C@]4(C)CC[C@@H]1[C@@]23OO4	Active	100	100	100	Activity [2]: inactive
